Assay [1] has as its target T1, CBP bromodomain and histone H3.3 (Homo sapiens, UniProt Q92793).
T1 construct: NanoBRET with the isolated CBP bromodomain and histone H3.3 in 293 cells; host or cells: HEK293
In words: NanoBRET, CBP bromodomain/histone H3.3 in HEK293 cells. The assay is classed as cell-based. As to conditions: 293 cells, CBP bromodomain and histone H3.3; n = 3 technical replicates ± SEM. On the procedure:
NanoBRET was carried out using the NanoBRET Protein:Protein Interaction System (Promega, Inc.; Madison, WI) according to the manufacturer’s instructions. Briefly, HEK293 cells were transiently co-transfected with a vector for histone H3.3-HaloTag and a NanoLuc tagged CBP bromodomain expression construct. Transfected cells were plated in 96 -well plates in the presence or absence of ligand, then treated with dose titrations of indicated compounds. Readings were performed on an Envision Plate Reader (Perkin Elmer, Inc.; Waltham, MA) and BRET readings were calculated by dividing the acceptor emission value (600 nm) by the donor emission value (460/50 nm).
(BRET reads energy transfer from a luciferase to a nearby fluorophore.)

In assay [2] the target is CBP-bromodomain/BRD9 ZsGreen fusion protein (Homo sapiens, UniProt Q92793). Briefly: cell-based.
Chain of CBP-bromodomain/BRD9 ZsGreen fusion protein (Q92793 1085-1192): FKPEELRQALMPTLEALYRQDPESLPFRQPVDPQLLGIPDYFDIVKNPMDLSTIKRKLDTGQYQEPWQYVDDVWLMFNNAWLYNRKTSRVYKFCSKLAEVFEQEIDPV
Chain of CBP-bromodomain/BRD9 ZsGreen fusion protein (Q9H8M2 with tags, fused parts or gaps partner): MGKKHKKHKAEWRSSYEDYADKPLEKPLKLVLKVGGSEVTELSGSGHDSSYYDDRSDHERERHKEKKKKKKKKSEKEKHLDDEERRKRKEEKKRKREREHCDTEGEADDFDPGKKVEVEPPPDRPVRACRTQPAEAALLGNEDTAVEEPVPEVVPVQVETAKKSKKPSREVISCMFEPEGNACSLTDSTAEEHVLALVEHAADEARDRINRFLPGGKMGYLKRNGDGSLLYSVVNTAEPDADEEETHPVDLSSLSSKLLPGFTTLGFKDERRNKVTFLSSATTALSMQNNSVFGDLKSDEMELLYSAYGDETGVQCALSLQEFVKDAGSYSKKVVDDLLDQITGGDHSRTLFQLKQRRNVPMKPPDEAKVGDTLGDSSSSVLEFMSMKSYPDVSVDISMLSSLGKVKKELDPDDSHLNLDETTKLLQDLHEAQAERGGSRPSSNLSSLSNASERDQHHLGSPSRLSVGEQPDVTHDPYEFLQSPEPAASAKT
A further assay deals with CBP bromodomain (Homo sapiens, UniProt Q92793). Briefly: biochemical. As to conditions: read-out: DTm.
Chain of CBP bromodomain (Q92793 1085-1192 limits assumed): as the sequence (Q92793 1085-1192) above
In assay [3] the target is T2, CBP bromodomain (amino acids 1082–1197) (Homo sapiens, UniProt Q92793).
T2 construct: His-Flag-tagged CBP bromodomain (amino acids 1082–1197)
T2 sequence (Q92793 1082-1197): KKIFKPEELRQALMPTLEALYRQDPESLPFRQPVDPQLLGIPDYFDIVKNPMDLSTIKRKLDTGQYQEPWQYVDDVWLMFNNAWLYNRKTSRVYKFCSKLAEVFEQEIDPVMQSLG
In words: AlphaLISA, acetylated peptide binding to CBP bromodomain. On the procedure:
Compound at varying concentrations were dispensed into 384 well Proxiplates (Perkin Elmer) using Echo technology (Labcyte, Inc.; Sunnyvale, CA). For CBP assays, 0.5 μM His-Flag-tagged CBP bromodomain (amino acids 1082–1197) was incubated with 0.003 μM H4-TetraAc-biotin for 20 min at room temperature in 1x reaction buffer (50 mM HEPES pH 7.5, 1 mM TCEP, 0.069 mM Brij-35, 150 mM NaCl, and 0.1 mg/ml BSA). Streptavidin acceptor beads and nickel donor beads (Perkin Elmer) were added to 15 μg/ml with a Combi Multidrop dispenser. Plates were sealed and incubated at 90 min in the dark at room temperature, and plates were read on an Envision plate reader (Perkin Elmer) according to manufacturer’s instructions. For the BET assays, the protocol was similar except that BET family bromodomains were used at 0.03 μM (BRD4-BD1) and incubated with 0.2 μM H4-TetraAc-biotin for 20 min in reaction buffer (40 mM HEPES pH7.0, 1 mM DTT, 0.069 mM Brij-35, 40 mM NaCl, and 0.1 mg/ml BSA). Streptavidin donor beads and Anti-Flag Acceptor beads (Perkin Elmer) were added to 10 μg/ml, and then plates were sealed and incubated in the dark for 60 min prior to reading on the Envision.
A general note: Alpha assays give light when donor and acceptor beads are brought close together.

The test system of a further assay is Nalm6. Briefly: Viability, resazurin, 6 days. The assay is classed as cell-based. As to conditions: Homo sapiens, NALM-6, 144 h, Nalm6, ALL. The gist of the method: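 Read-out: resazurin fluorescence (Ex 530, Em 590 nm) after 2–8 hr with 500 μg/ml dye in PBS. Wells held 5000–10000 cells plated directly into compound dilution series. GI50 = dose at which signal fell to half the DMSO control, from a four-parameter fit.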
For orientation: The colour change of resazurin is a common sign of viable cells or microbes.

T1 sequence (Q92793 1085-1192 limits assumed): as the sequence (Q92793 1085-1192) above

On to `CCC(=O)N1CCOc2c(cc(-c3ccc(OC)c(OC)c3)cc2OC[C@H]2CCCN(C)C2)C1` [I-CBP112], for which, in assay [1], the “IC50 (μM), CBP BRET (EC50, NanoBRET)” value stood at 0.25 ± 0.03 µM. In addition, in assay [2], the EC50 (in general, the midpoint of the concentration-response curve) turned out to be 1.7 ± 0.34 µM. Moreover, the ΔTm at 20 µM on CBP bromodomain worked out at 4.52 °C. Moreover, the IC50 – broadly, the concentration at which inhibition is half-maximal – in assay [3] stood at 0.19 ± 0.02 µM.

With `COc1ccc(CCc2nc3cc(-c4c(C)noc4C)ccc3n2C[C@H](C)N2CCOCC2)cc1Cl` [SGC-CBP30], halving of growth in the assay on Nalm6 (GI50) required 3.86 µM.

Source of the values: article PMC4775225, “Bromodomain inhibition of the transcriptional coactivators CBP/EP300 as a therapeutic strategy to target the IRF4 network in multiple myeloma” (eLife, 2016).
